According to US9783488B2 (CHDI Foundation, Inc., priority 2013, dated 2017):

How the values were obtained:
[1] = target: human catalytic domain HDAC4 protein (amino acids 648-1032) (Homo sapiens (Human), UniProt P56524); assay: Inhibition of HDAC4 catalytic domain enzymatic activity, fluorogenic substrate Boc-Lys(Tfa)-AMC; details: HDAC4 catalytic domain enzyme, read-out: Biochemical HDAC4 IC50
[2] = tested on: cellular histone deacetylase enzymatic activity in Jurkat E6-1 cells; assay: Inhibition of cellular HDAC activity in Jurkat E6-1 cells, fluorogenic substrate Boc-Lys(Tfa)-AMC; assay type: cell-based; details: Homo sapiens, read-out: Cell IC50
In short: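 Jurkat E6.1 cells (75,000/well) were pre-treated with compound for 2 h at 37 °C, then given Boc-Lys(Tfa)-AMC (5× stock 500 μM) for 3 h. Cells were lysed with trypsin-containing buffer overnight, and released AMC fluorescence was read at Ex 355/Em 460 nm over a 16-point dilution series.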

human catalytic domain HDAC4 protein (amino acids 648-1032), sequence (P56524 648-1032): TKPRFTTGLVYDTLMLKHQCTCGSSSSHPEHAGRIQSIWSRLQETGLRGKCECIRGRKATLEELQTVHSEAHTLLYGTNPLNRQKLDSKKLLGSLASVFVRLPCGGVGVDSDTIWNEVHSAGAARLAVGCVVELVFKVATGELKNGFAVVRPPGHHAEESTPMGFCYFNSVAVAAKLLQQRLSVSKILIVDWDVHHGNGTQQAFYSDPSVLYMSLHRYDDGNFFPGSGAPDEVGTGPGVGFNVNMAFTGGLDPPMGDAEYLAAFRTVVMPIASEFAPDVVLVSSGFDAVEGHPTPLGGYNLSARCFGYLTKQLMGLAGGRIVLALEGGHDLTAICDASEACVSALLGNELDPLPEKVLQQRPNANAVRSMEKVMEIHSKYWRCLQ

IC50 [1]	IC50 [2]	Compound
> 50000 nM	> 50000 nM	COc1cccc(C2(C(=O)NO)CCCC2)c1C(F)(F)F [Example 33, N-Hydroxy-1-(3-methoxy-2-(trifluoromethyl)phenyl)cyclopentanecarboxamide]
1100 nM	7300 nM	Cc1c(F)cccc1[C@]1(C(=O)NO)CC[C@@H](N2CCOCC2)C1 (relative stereo) [Example 89, (1S,3R*)-1-(3-fluoro-2-methylphenyl)-N-hydroxy-3-morpholinocyclopentanecarboxamide]
55 nM	59 nM	Cc1c(F)cccc1[C@]1(C(=O)NO)CC[C@@H](c2ccc3cnn(C)c3c2F)C1 (relative stereo) [Example 83, (1S,3R*)-3-(7-Fluoro-1-methyl-1H-indazol-6-yl)-1-(3-fluoro-2-methylphenyl)-N-hydroxycyclopentanecarboxamide]
73 nM	81 nM	Cc1c(F)cccc1[C@]1(C(=O)NO)CC[C@@H](c2ccc3cn[nH]c3c2F)C1 (relative stereo) [Example 61, (1S,3R*)-3-(7-fluoro-1H-indazol-6-yl)-1-(3-fluoro-2-methylphenyl)-N-hydroxycyclopentanecarboxamide]
